Experimental data: ChEMBL document CHEMBL1201862, “PubChem BioAssay data set” (2004)
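All cell lines were grown in 96-well plates and treated with compound for 48 hours. GI50: concentration for 50% inhibition of growth.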 Activity calls are given as the source filed them. Rule as the data show it: active = GI50 up to about 1.1 µM and inactive = higher.

Legend:
Assay in all cases: inhibition of tumour cell growth, NCI panel, 48 h
T47D = system: T47D
A549 = system: A549
DU-145 = system: DU-145
UO-31 = system: UO-31
Malme-3M = system: Malme-3M
786-0 = system: 786-0
RPMI-8226 = system: RPMI-8226
TK-10 = system: TK-10
KM12 = system: KM12
COLO 205 = system: COLO 205
NCI-H23 = system: NCI-H23
SK-MEL-28 = system: SK-MEL-28
ACHN = system: ACHN
OVCAR-3 = system: OVCAR-3
HCT-116 = system: HCT-116
NCI-H226 = system: NCI-H226
MDA-MB-435 = system: MDA-MB-435

Measured: GI50

CC1(C)COC(c2cccc(C(=O)c3ccccc3)c2)=N1
inactive: T47D 25.7 µM | A549 55.2 µM | DU-145 75.7 µM | UO-31 29.1 µM | Malme-3M 46.3 µM | 786-0 61.1 µM | RPMI-8226 36.8 µM | TK-10 90.6 µM | KM12 44.6 µM | COLO 205 56.9 µM | NCI-H23 34.1 µM | SK-MEL-28 42.8 µM | ACHN 64.4 µM | OVCAR-3 24.7 µM | HCT-116 > 100 µM

COc1cc(S(=O)(=O)Nc2nc(-c3ccc(N4C(=O)C(CC(=O)O)SC4c4cccs4)cc3)cs2)ccc1Cl (stereo not given)
inactive: T47D 25.9 µM | A549 > 100 µM | DU-145 43.5 µM | NCI-H226 > 100 µM | UO-31 19.9 µM | Malme-3M 22.6 µM | 786-0 41.8 µM | TK-10 79.4 µM | KM12 36.9 µM | COLO 205 > 100 µM | NCI-H23 22.6 µM | SK-MEL-28 70.1 µM | ACHN > 100 µM | OVCAR-3 36.2 µM | HCT-116 29.3 µM | MDA-MB-435 40 µM

O=c1oc(C(C(F)(F)F)C(F)(F)F)nc2ccccc12
inactive: A549 > 100 µM | NCI-H226 > 100 µM | UO-31 > 100 µM | Malme-3M > 100 µM | 786-0 > 100 µM | RPMI-8226 > 100 µM | TK-10 > 100 µM | COLO 205 > 100 µM | NCI-H23 > 100 µM | SK-MEL-28 > 100 µM | ACHN > 100 µM | OVCAR-3 > 100 µM | HCT-116 > 100 µM | MDA-MB-435 > 100 µM

O=C(O)CCCc1nc2c(n1Cc1ccccc1)C(=O)c1ccccc1C2=O
inactive: T47D 60.5 µM | A549 30.8 µM | DU-145 29.6 µM | UO-31 > 100 µM | Malme-3M 15.7 µM | 786-0 > 100 µM | RPMI-8226 18.7 µM | TK-10 > 100 µM | KM12 43.7 µM | COLO 205 34.2 µM | NCI-H23 31.6 µM | SK-MEL-28 > 100 µM | ACHN 45.2 µM | OVCAR-3 21.5 µM | HCT-116 28.6 µM

CC(=O)OC12c3ccccc3-c3ccccc3C1C(C(=O)O)C2(Cl)C(=O)O (stereo not given)
inactive: T47D > 10 µM | DU-145 > 10 µM | NCI-H226 > 10 µM | UO-31 > 10 µM | Malme-3M > 10 µM | 786-0 > 10 µM | RPMI-8226 > 10 µM | TK-10 > 10 µM | KM12 > 10 µM | COLO 205 > 10 µM | NCI-H23 > 10 µM | SK-MEL-28 > 10 µM | ACHN > 10 µM | OVCAR-3 > 10 µM | MDA-MB-435 > 10 µM
